# Measurements as given in patent US11192866B2, “Synthesis of tetracyclines and analogues thereof” (President and Fellows of Harvard College, priority 2004, dated 2021).
# Test system: Gram-positive strains
# Assay: Whole-cell antibacterial MIC assay (NCCLS serial dilution), Gram-positive strains
# Type: cell-based
# Conditions: each of the Gram-positive strains examined, including strains with resistance to tetracycline, methicillin, and vancomycin
# Experimental: The efficiencies of the synthetic sequences have allowed for the preparation of sufficient quantities of each tetracycline analog for antibacterial testing using standard serial-dilution techniques (5-20 mg amounts). Minimum inhibitory concentrations (MICs) are reported for each analog in whole-cell antimicrobial assays using five Gram-positive and five Gram-negative organisms (FIGS. 18A to 18C).
# Whole-cell antibacterial activity was determined according to methods recommended by the NCCLS (National Committee for Clinical Laboratory Standards. 2002. Methods for dilution antimicrobial susceptibility tests for bacteria that grow aerobically: approved standard-fifth edition. NCCLS document M100-S12. National Committee for Clinical Laboratory Standards. Wayne, Pa.; incorporated herein by reference). Test compounds were dissolved in dimethyl sulfoxide (DMSO) and the resulting solutions were diluted in water (1:10) to produce stock solutions with a final concentration of 256 μg tetracycline analog per mL. In a 96-well microtiter plate, 50-μL aliquots of stock solutions were diluted serially into cation-adjusted Mueller-Hinton broth (MHB; Becton-Dickinson, Cockeysville, Md.). Test organisms (50 μL aliquots of solutions […]) were then added to the appropriate wells of the microtiter plate. […] The MIC was the lowest concentration of compound determined to inhibit visible growth. […]
smiles,measurement,value
CN(C)[C@@H]1C(O)=C(C(N)=O)C(=O)[C@@]2(O)C(O)=C3C(=O)c4c(cc5ccccc5c4O)C[C@H]3C[C@@H]12 [pentacycline derivative 6],antibacterial activity compared with tetracycline,activity equal to or greater than tetracycline
